# Test results taken from patent publication EP3177150B1, “A COMBINATION OF VITAMIN D AND ZINC AND ITS USE” (Société des Produits Nestlé S.A., priority 2014, dated 2016).
# Like-named read-outs stand apart in the source and are kept apart here.
# Experiments:
# [1] = tested on: L6 differentiated muscle cells
# Method: The effect of zinc and vitamin D on glucose uptake in L6 differentiated muscle cells was measured after short (2hours) and long term (24 hours) incubations.
# Ingredient J was tested at 10 µM and 20 µM.
# Ingredient K was tested at 1 nM and 10 nM.
# Ingredient J was prepared in water and stored at -20°C (mother solution at 2 M) and ingredient K was prepared in DMSO and stored at -20°C (mother solution at 0.01 mM). The day of the experiment, the ingredients were diluted in a serum-free medium (DMEM) containing 5.5 mM D-glucose to achieve the final tested concentrations and 0.1 % of DMSO.
# L6 myoblasts were maintained in growth medium or DMEM 25 mM glucose supplemented with 10 % of fetal bovine serum (FBS), 100 U/ml penicillin, and 100 µg/ml streptomycin. For the glucose uptake study, cells were grown on 24 well plates at a density of 1000-1500 cells/well in 0.5 mL of growth medium. Five days after plating, the differentiation induction into myotubes was carried out in DMEM 25 mM glucose containing 2 % FBS, 100 U/ml penicillin, and 100 µg/ml streptomycin at 37°C under a 5 % CO2 atmosphere. The culture medium was changed every other day.
# For short term incubation (2 hours), the day prior to the test, the culture medium was replaced by DMEM 25 mM D-glucose containing 0.25 % BSA, 100 U/ml penicillin, and 100 µg/ml streptomycin. The day after and prior to the test, cells were washed and incubated in DMEM containing 5.5 mM D-glucose, 0.34 % BSA in the presence of the ingredients for 2 hours with and without insulin (100 nM).
# For long term incubation (24 hours), the day prior to the test, cells were pre-incubated in the presence of the tested ingredients (ingredient J, K, or a combination thereof) for 18 hours in DMEM 25 mM D-glucose containing 0.25 % BSA, 100 U/ml penicillin, and 100 µg/ml streptomycin in the absence of insulin. The day after and prior to the test, cells were washed and incubated in the presence of the tested ingredients for 6 hours more in DMEM containing 5.5 mM D-glucose, 0.34 % BSA without insulin. Insulin (100 nM) was added for the last 2 hours.
# In normal and physiopathological conditions, glucose uptake was measured by incubation of the cells with radiolabelled 2-deoxy-D-[1,2 3H] glucose for 15 min. Glucose uptake was arrested by two washing steps in ice-cold PBS 1X. Then cells were solubilized in 0.1 N NaOH for 30 min. Cell associated radioactivity was then counted and protein quantification was determined using the coloric Lowry method.
# Each condition was tested in triplicate. Insulin (100 and 1000 nM / 2 hours) and Metformin (1.5 mM / 24 hours) were used as positive controls.
# Results are expressed in pmol glucose incorporated / min / mg protein and in % of control or basal condition or insulin 0 nM (100 %).
# A statistical analysis allowing multiple comparisons (one way ANOVA followed by a Dunnett's t test; * P < 0.05, **P < 0.01, ***P < 0.001 versus control condition) was carried out.
# [2] = tested on: insulin resistant L6 differentiated muscle cells; test: glucose uptake (radiolabelled 2-deoxy-D-glucose) in insulin resistant L6 differentiated muscle cells (Palmitate exposure); assay type: cell-based
# Method: Each condition was tested in triplicate.
# [3] = long term incubation (24 hrs), absence of insulin
# [4] = long term incubation (24 hrs), presence of insulin (100 nM, last 2 hours)
# [5] = short term incubation (2 hrs), absence of insulin, J 10 and 20 µM, K 1 and 10 nM, versus control
# [6] = short term incubation (2 hrs), presence of insulin (100 nM), J 10 and 20 µM, K 1 and 10 nM
# [7] = insulin resistant cells (Palmitate 6 hours), short term incubation (2 hrs), absence of insulin
# [8] = insulin resistant cells (Palmitate 6 hours), short term incubation (2 hrs), presence of insulin (100 nM)
# [9] = insulin resistant cells, long term incubation (24 hrs), absence of insulin
# [10] = insulin resistant cells, long term incubation (24 hrs), presence of insulin (100 nM, last 2 hours)
SMILES,"glucose uptake [1, 3]","glucose uptake [1, 4]","glucose uptake [1, 5]","glucose uptake [1, 6]","glucose uptake [2, 7]","glucose uptake [2, 8]","glucose uptake [2, 9]","glucose uptake [2, 10]"
"[Cl-].[Cl-].[Zn+2] [ingredient J, zinc chloride]",no increase or a slight but not significant increase,no increase or a slight but not significant increase,no increase or a slight but not significant increase,no increase or a slight but not significant increase,no increase or a slight but not significant increase,no increase or a slight but not significant increase,no increase or a slight but not significant increase,no increase or a slight but not significant increase
"C=C1/C(=C\C=C2/CCC[C@]3(C)[C@@H]([C@H](C)CCCC(C)(C)O)CC[C@@H]23)C[C@@H](O)C[C@@H]1O [ingredient K, 1,25-dihydroxyvitamin D3]",no increases or a slight but not significant increase,No increase or a slight but not significant increase,significant increases,did not increase insulin-induced glucose uptake,significant increases,did not increase insulin-induced glucose uptake,no increases or a slight but not significant increase,No increase or a slight but not significant increase
